Source: PMC9865890, “N-Derivatives of (Z)-Methyl 3-(4-Oxo-2-thioxothiazolidin-5-ylidene)methyl)-1H-indole-2-carboxylates as Antimicrobial Agents—In Silico and In Vitro Evaluation” (Pharmaceuticals, 2023)
≈ marks a conversion by molar mass, not a printed value. Like-named read-outs stand apart in the source and are kept apart here.

Assays:
[1] = test system: Bacillus cereus (clinical isolate); assay: Antibacterial microdilution (MIC/MBC); assay type: cell-based; details: B.c. (B. cereus)
Method: (§1) The synthesized compounds (Table 1) were evaluated for their antibacterial activity against a panel of eight species using a microdilution method with ampicillin and streptomycin as reference drugs. […] The order of activity can be presented as: 8 > 11 > 2 > 1 > 12 > 3 > 17 > 7 > 5 > 13 > 14 > 16 > 9 > 4 = 6 > 15 > 10. […] Cloacae. […] The most sensitive bacteria appeared to be En. cloacae, while E. coli was the most resistant one, followed by M. flavus.
(§2) The following Gram-negative bacteria: Escherichia coli (ATCC 35210), Enterobacter cloacae (clinical isolate), Salmonella typhimurium (ATCC 13311), as well as Gram-positive bacteria: Listeria monocytogenes (NCTC 7973), Bacillus cereus (clinical isolate), and Staphylococcus aureus (ATCC 6538) were used. The organisms were obtained from the Mycological Laboratory, Department of Plant Physiology, Institute for Biological Research “Siniša Stankovic”, Belgrade, Serbia. The minimum inhibitory (MIC) and minimum bactericidal (MBC) concentrations were determined by the modified microdilution method, as previously reported.

[2] = test system: Enterobacter cloacae (clinical isolate); assay: Antibacterial microdilution (MIC/MBC); assay type: cell-based; details: Enterobacter cloacae, En.cl (En. cloacae); for MIC: read-out: MIC
Method: as §1, §2

[3] = test system: Escherichia coli (ATCC 35210); assay: Antibacterial microdilution (MIC/MBC); assay type: cell-based; details: Escherichia coli, ATCC35210, E. coli; for MIC: read-out: MIC
Method: as §1, §2

[4] = test system: Listeria monocytogenes (NCTC 7973); assay: Antibacterial microdilution (MIC/MBC); assay type: cell-based; details: Listeria monocytogenes, NCTC7973, L.m. (L. monocytogenes); for MIC: read-out: MIC
Method: as §1, §2

[5] = test system: M. flavus; assay: Antibacterial microdilution (MIC/MBC); assay type: cell-based; details: Micrococcus flavus; M.f. (M. flavus)
Method: as §1, §2

[6] = test system: P. aeruginosa; assay: Antibacterial microdilution (MIC/MBC); assay type: cell-based; details: Pseudomonas aeruginosa, P.a. (P. aeruginosa); for MIC: read-out: MIC
Method: as §1, §2

[7] = test system: Salmonella typhimurium (ATCC 13311); assay: Antibacterial microdilution (MIC/MBC); assay type: cell-based; details: S.t. (S. typhimurium)
Method: as §1, §2

[8] = test system: Staphylococcus aureus (ATCC 6538); assay: Antibacterial microdilution (MIC/MBC); assay type: cell-based; details: S.a. (S. aureus)
Method: as §1, §2

[9] = test system: A. ochraceus; assay: Antifungal bioassay (MIC/MFC); assay type: cell-based; details: Aspergillus ochraceus, A.o. (A. ochraceus); for MIC: read-out: MIC
Method: (§3) For the antifungal bioassays, six fungi were used: […] The organisms were obtained from the Mycological Laboratory, Department of Plant Physiology, Institute for Biological Research “Siniša Stankovic”, Belgrade, Serbia. All experiments were performed in duplicate.

[10] = test system: Aspergillus fumigatus (ATCC 1022); assay: Antifungal bioassay (MIC/MFC); assay type: cell-based; details: ATCC1022, A.f. (A. fumigatus)
Method: as §3

[11] = test system: Aspergillus niger (ATCC 6275); assay: Antifungal bioassay (MIC/MFC); assay type: cell-based; details: ATCC6275, A.n. (A. niger)
Method: as §3

[12] = test system: Aspergillus versicolor (ATCC 11730); assay: Antifungal bioassay (MIC/MFC); assay type: cell-based; details: ATCC11730, A.v. (A. versicolor)
Method: as §3

[13] = test system: P. ochrochloron; assay: Antifungal bioassay (MIC/MFC); assay type: cell-based; details: Penicillium ochrochloron; for MFC: P.o. (P. ochrochloron); for MIC: P.o. (P. ochrochloron; text: P. ochramensis), read-out: MIC
Method: as §3

[14] = test system: Penicillium funiculosum (ATCC 36839); assay: Antifungal bioassay (MIC/MFC); assay type: cell-based; details: Talaromyces funiculosus, ATCC36839; P.f. (P. funiculosum)
Method: as §3

[15] = test system: Trichoderma viride (IAM 5061); assay: Antifungal bioassay (MIC/MFC); assay type: cell-based; details: T.v. (T. viride)
Method: as §3

[16] = test system: Penicillium verrucosum var. cyclopium (food isolate); assay: Antifungal bioassay (MIC/MFC); assay type: cell-based
Method: For the antifungal bioassays, six fungi were used: Aspergillus niger (ATCC 6275), Aspergillus fumigatus (ATCC 1022), Aspergillus versicolor (ATCC 11730), Penicillium funiculosum (ATCC 36839), Trichoderma viride (IAM 5061), and Penicillium verrucosum var. cyclopium (food isolate). The organisms were obtained from the Mycological Laboratory, Department of Plant Physiology, Institute for Biological Research “Siniša Stankovic”, Belgrade, Serbia. All experiments were performed in duplicate.

[17] = Salmonella enterica, read-out: MIC
[18] = Staphylococcus aureus, ATCC6538
[19] = Staphylococcus aureus, ATCC6538, read-out: MIC
[20] = Trichoderma viride, IAM5061, read-out: MIC

| Structure (SMILES) | MBC ([1]; Bacillus cereus) [mg/L] | MIC ([1]; Bacillus cereus, read-out: MIC) [mg/L] | MBC [2] [mg/L] | MIC [2] [mg/L] | MBC [3] [mg/L] | MIC [3] [mg/L] | MBC [4] [mg/L] | MIC [4] [mg/L] | MBC [5] [mg/L] | MIC [5] [mg/L] | MBC [6] [mg/L] | MIC [6] [mg/L] | MBC ([7]; Salmonella enterica) [mg/L] | MIC [7, 17] [mg/L] | MBC [8, 18] [mg/L] | MIC [8, 19] [mg/L] | MFC [9] [mg/L] | MIC [9] [mg/L] | MFC [10] [mg/L] | MIC [10] [mg/L] | also measured |
| --- | --- | --- | --- | --- | --- | --- | --- | --- | --- | --- | --- | --- | --- | --- | --- | --- | --- | --- | --- | --- | --- |
| CC1(C)S[C@@H]2[C@H](NC(=O)[C@H](N)c3ccccc3)C(=O)N2[C@H]1C(=O)O [Ampicillin, reference compound] | 25 (≈ 71.5 µM) | 6 ± 3 (≈ 17.2 µM) | 500 ± 100 (≈ 1430 µM) | 250 ± 90 (≈ 715 µM) | 200 (≈ 572 µM) | 100 ± 50 (≈ 286 µM) | 300 ± 30 (≈ 859 µM) | 150 ± 30 (≈ 429 µM) | 500 ± 100 (≈ 1430 µM) | 250 ± 90 (≈ 715 µM) | 500 ± 100 (≈ 1430 µM) | 300 ± 30 (≈ 859 µM) | 200 ± 9 (≈ 572 µM) | 150 ± 30 (≈ 429 µM) | 150 ± 50 (≈ 429 µM) | 100 ± 50 (≈ 286 µM) | – | – | – | – | – |
| c1ccc(-c2ccc(C(c3ccccc3)n3ccnc3)cc2)cc1 (stereo not shown) [Bifonazole, reference compound] | – | – | – | – | – | – | – | – | – | – | – | – | – | – | – | – | 200 ± 10 (≈ 644 µM) | 150 ± 50 (≈ 483 µM) | 200 ± 10 (≈ 644 µM) | 150 ± 50 (≈ 483 µM) | MFC [11]: 200 ± 10 mg/L (≈ 644 µM); MIC [11]: 150 ± 50 mg/L (≈ 483 µM); MFC [12]: 200 ± 10 mg/L (≈ 644 µM); MIC [12]: 100 ± 2 mg/L (≈ 322 µM); MFC [13]: 250 ± 50 mg/L (≈ 805 µM); MIC [13]: 200 ± 10 mg/L (≈ 644 µM); MFC [14]: 250 ± 50 mg/L (≈ 805 µM); MIC [14]: 200 ± 10 mg/L (≈ 644 µM); MFC ([15]; Trichoderma viride, IAM5061): 200 ± 10 mg/L (≈ 644 µM); MIC [15, 20]: 150 ± 50 mg/L (≈ 483 µM); MFC ([16]; P.v.c. (P. cyclpoium var verucosum), read-out: MFC): 200 ± 10 mg/L (≈ 644 µM); MIC ([16]; P.v.c. (P. cyclpoium var verucosum), read-out: MIC): 100 ± 9 mg/L (≈ 322 µM) |
| COC(=O)c1[nH]c2ccccc2c1/C=C1\SC(=S)N(c2cccc(O)c2)C1=O [Compound 3, (Z)-methyl 3-((3-(3-hydroxyphenyl)-4-oxo-2-thioxothiazolidin-5-ylidene)methyl)-1H-indole-2-carboxylate] | 30 ± 10 (≈ 73.1 µM) | 15 (≈ 36.5 µM) | 30 ± 10 (≈ 73.1 µM) | 15 ± 9 (≈ 36.5 µM) | 30 ± 10 (≈ 73.1 µM) | 22 ± 5 (≈ 53.6 µM) | 60 ± 6 (≈ 146 µM) | 30 ± 10 (≈ 73.1 µM) | 60 ± 6 (≈ 146 µM) | 45 ± 3 (≈ 110 µM) | 60 ± 6 (≈ 146 µM) | 30 ± 10 (≈ 73.1 µM) | 30 ± 10 (≈ 73.1 µM) | 15 (≈ 36.5 µM) | 30 ± 10 (≈ 73.1 µM) | 15 (≈ 36.5 µM) | 15 ± 3 (≈ 36.5 µM) | 8 ± 0.6 (≈ 19.5 µM) | 60 ± 6 (≈ 146 µM) | 30 ± 10 (≈ 73.1 µM) | MIC [1]: 15 ± 9 mg/L (≈ 36.5 µM); MIC [7]: 15 ± 9 mg/L (≈ 36.5 µM); MIC [8]: 15 ± 9 mg/L (≈ 36.5 µM); MFC [12]: 15 ± 3 mg/L (≈ 36.5 µM); MIC [12]: 8 ± 0.6 mg/L (≈ 19.5 µM); MFC [13]: 15 ± 3 mg/L (≈ 36.5 µM); MIC [13]: 8 ± 0.6 mg/L (≈ 19.5 µM); MFC [14]: 15 ± 3 mg/L (≈ 36.5 µM); MIC [14]: 8 ± 0.6 mg/L (≈ 19.5 µM); MIC [15]: 4 ± 1 mg/L (≈ 9.74 µM); MFC ([15]; Trichoderma viride, IAM5061): 8 ± 0.6 mg/L (≈ 19.5 µM); MIC [15, 20]: 4 mg/L (≈ 9.74 µM); MFC [16]: 30 ± 10 mg/L (≈ 73.1 µM); MIC [16]: 15 ± 3 mg/L (≈ 36.5 µM); melting point: 245 to 247 °C |
